Experimental data taken from BindingDB's records for patent US11980598 (Beijing Greatway Pharmaceutical Technology Co., 2024).

Molecular target: T1, 5-hydroxytryptamine receptor 2C (Homo sapiens, UniProt P28335)
T1 sequence (P28335 whole entry): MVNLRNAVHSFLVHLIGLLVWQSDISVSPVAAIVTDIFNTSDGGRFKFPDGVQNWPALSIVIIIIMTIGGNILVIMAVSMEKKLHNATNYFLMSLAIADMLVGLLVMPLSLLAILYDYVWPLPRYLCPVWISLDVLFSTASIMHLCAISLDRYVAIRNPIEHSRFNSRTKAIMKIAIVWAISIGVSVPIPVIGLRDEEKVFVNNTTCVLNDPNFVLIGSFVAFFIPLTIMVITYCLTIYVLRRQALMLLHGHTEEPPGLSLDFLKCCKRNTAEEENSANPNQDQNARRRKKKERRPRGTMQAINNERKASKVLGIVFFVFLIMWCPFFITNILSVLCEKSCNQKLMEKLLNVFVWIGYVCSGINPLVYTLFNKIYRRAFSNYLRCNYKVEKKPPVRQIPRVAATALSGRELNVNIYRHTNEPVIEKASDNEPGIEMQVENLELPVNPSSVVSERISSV
Assay: 5-HT2C Receptor Binding Test
Experimental: 50 μg of the receptor membrane protein 5-HT2C was added to all the tubes. […] All the tubes were added with 40 μL of [3H]-LSD (lysergic acid diethylamide), respectively. […] The filter paper was taken out and dried by baking, and then placed in a scintillation bottle. 1 mL of the scintillation liquid was added, and the radioactive intensity was measured by a liquid scintillation counter

SMILES	IC50 [nM]
COc1cc2c(CCNC(C)=O)cccc2cc1Cl [US11980598, Compound 1]	0.77
COc1cc2c(CCNC(C)=O)cccc2cc1F [US11980598, Compound 4]	20.8
